From patent US20230391781A1, “MALT1 MODULATORS AND USES THEREOF” (Rheos Medicines, Inc., priority 2020, published 2023)
Values after ≈ are worked out from the molar mass of the structure shown.

How the values were obtained:
full length MALT1 = full length MALT1 (Homo sapiens (Human), UniProt Q9UDY8); assay: MALT1 Biochemical Assay; conditions: 15 nM enzyme, 30 μM peptide substrate Ac-Leu-Arg-Ser-Arg-Rh110-dPro, 30 min pre-incubation, 60 min reaction; mean value if tested more than once
In short: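 Full-length human MALT1 was pre-incubated with compound for 30 min, then cleaved a fluorogenic peptide for 60 min in 50 mM Hepes pH 7.5 with 0.8 M sodium citrate and 1 mM DTT. The reaction was quenched with 10 mM iodoacetate and fluorescence was read at 485/520 nm. IC50 came from four-parameter logistic fits of percent inhibition.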

[1] = tested on: IL-2 in Jurkat (ATCC, clone E6.1) cells stimulated with anti-CD3/28/2; assay: Jurkat IL-2 Assay; format: cell-based; conditions: Homo sapiens; IL-2 inhibition, Jurkat cells, 30 min compound then anti-CD3/28/2 stimulation for 24 hours; mean value if tested more than once; read-out: IC50
In short: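 Jurkat E6.1 T cells in RPMI/10% FBS (below passage 25) were preincubated with a compound dose-response for 30 min, then stimulated with soluble anti-CD3/28/2 for 24 h. IL-2 in the supernatant was measured by MSD immunoassay and viability by CellTiter-Glo luminescence. IC50 came from a 4-parameter fit, reported as ranges, with the mean used where tested repeatedly.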

[2] = High Throughput Dialysis (HTD) Human Plasma Protein Binding Assay; format: in vitro ADME; conditions: pooled human plasma, pH 7.4, equilibrium dialysis, 37° C., read-out: Human PPB (% Unbound)
Description: Human plasma protein binding of various compounds of formula (I) were evaluated using the equilibrium dialysis method described herein.
The dialysis membrane strips (HTD % a/b, catalog number 1101, HTDialysis LLC, Gales Ferry, CT, USA) were soaked in ultra-pure water at room temperature for approximately 1 hour. Each membrane strip containing 2 membranes was separated and soaked in 20:80 ethanol/water (v/v) for approximately 20 minutes, after which they were ready for use or were stored in the solution at 2-8° C. for up to a month. Prior to the experiment, the membrane was rinsed three times and soaked for 20 minutes in ultra-pure water.
On the day of experiment, the human plasma (BiolVT, catalog number […], sodium heparin or EDTA-K2 anticoagulant, multiple individuals pooled) was thawed by running under cold tap water and centrifuged at 3220 rpm for 5 minutes to remove any clots. The pH value of the resulting plasma was confirmed to be 7.0-8.0.
The test compounds and warfarin control (Stru Chem, catalog number SC-16139) were dissolved in dimethyl sulfoxide (DMSO) to obtain 10 mM stock solutions. DMSO working solutions were prepared at 400 μM. To prepare the loading matrix, the compound working solutions (5 μL) were added in a 1:200 ratio to blank human plasma (995 μL) and mixed thoroughly.
The time zero (T0) samples to be used for recovery determination were prepared as follows: 50 μL aliquots of loading matrix were transferred in triplicate to the sample collection plate. The samples were immediately matched with opposite blank buffer (basic solution (14.2 g/L Na2HPO4 and 8.77 g/L NaCl in deionized water) titrated with acidic solution (15.6 g/L NaH2PO4·2H2O and 8.77 g/L NaCl in deionized water) to pH 7.4±0.1) to obtain a final volume of 100 μL of 1:1 matrix/dialysis buffer (v/v) in each well. 500 μL stop solution (200 ng/mL tolbutamide and 200 ng/mL labetalol in acetonitrile) were added to these TO samples. They were then stored at 2-8° C. for further processing along with other post-dialysis samples.
To load the dialysis device (96-well equilibrium dialysis plate, model 96b, catalog number 1006. HTDialysis LLC, Gales Ferry, CT, USA), an aliquot of 150 μL of the loading matrix was transferred to the donor side of each dialysis well in triplicate, and 150 μL of the dialysis buffer was loaded to the receiver side of the well. The dialysis plate was placed in a humidified incubator at 37° C. with 5% CO2 on a shaking platform that rotated slowly (about 100 rpm) for 4 hours.
At the end of the dialysis, aliquots of 50 μL of the samples were taken from both the buffer side and the matrix side of the dialysis device. These samples were transferred into new 96-well plates (polypropylene, 2.2 mL/well, catalog number DWP-22-96-SQ-U-C-L. Apricot). Each sample was mixed with an equal volume of opposite blank matrix (buffer or matrix) to reach a final volume of 100 μL of 1:1 matrix/dialysis buffer (v/v) in each well. All samples were further processed by adding 500 μL of stop solution containing internal standards. The mixture was vortexed and centrifuged at 4000 rpm for about 20 minutes. An aliquot of 100 μL of supernatant of all the samples was then removed for LC-MS/MS analysis. Test compound concentrations in matrix and buffer samples were expressed as peak area ratios (PAR) of analyte/internal standard (no standard curve).
The single blank samples were prepared by transferring 50 μL of blank matrix to a 96 well plate (polypropylene. 2.2 mL/well, catalog number DWP-22-96-SQ-U-C-L, Apricot) and adding 50 μL of blank PBS buffer to each well. The blank plasma must match the species of plasma used in the plasma side of the well. Then the matrix-matched samples were further processed by adding 500 μL of stop solution containing internal standards, following the same sample processing method as the dialysis samples. […]

[3] = Thermodynamic Solubility (Ts) Assay in Fasted State Simulated Intestinal Fluid (FaSSIF); format: physicochemical; conditions: thermodynamic from solid, FaSSIF pH 6.5, shake flask, 25° C., HPLC-UV
Description: The solubilities of various compounds of formula (I) were determined using a thermodynamic solubility assay. The thermodynamic solubility assay employed the shake flask method followed by HPLC-UV analysis. The following stepwise procedure was followed:
Samples of no less than 2.0 mg were weighed into the lower chambers of Whatman mini-uniprep vials (catalog number UN203NPUORG) and 450 μL of FaSSIF media (0.056% (w/v) lecithin, 0.161% (w/v) sodium taurocholate, 0.39% (w/v) monobasic potassium phosphate, 0.77% (w/v) potassium chloride, deionized H2O, pH 6.5) was added into each vial.
After the buffer was added, the filter pistons of the mini-uniprep vials were placed to the position of the liquid level to ensure the full contact of buffer and compound with the filter during the incubation.
The samples were then vortexed for 2 minutes, after which they were incubated at 25° C. with shaking (880 rpm) for 24 hours.
The samples were then centrifuged at 4000 rpm (20° C.) for 10 min.
The miniunipreps were then compressed to prepare filtrates, and the test concentration of the compound in the filtrate was determined using HPLC-UV (Waters XBridge C18, 4.6*100 mm column; mobile phase A: 0.1% TFA in H2O; mobile phase B: 0.1% TFA in acetonitrile). At least 5 UV standard solutions (e.g. amiodarone hydrochloride, carbamazepine, dexamethasone) were injected into the HPLC from low to high concentration subsequently followed by testing of the thermodynamic solubility supernatants in duplicate. The solubilities of the tested compounds are given in μg/mL.

full length MALT1, sequence (Q9UDY8 whole entry): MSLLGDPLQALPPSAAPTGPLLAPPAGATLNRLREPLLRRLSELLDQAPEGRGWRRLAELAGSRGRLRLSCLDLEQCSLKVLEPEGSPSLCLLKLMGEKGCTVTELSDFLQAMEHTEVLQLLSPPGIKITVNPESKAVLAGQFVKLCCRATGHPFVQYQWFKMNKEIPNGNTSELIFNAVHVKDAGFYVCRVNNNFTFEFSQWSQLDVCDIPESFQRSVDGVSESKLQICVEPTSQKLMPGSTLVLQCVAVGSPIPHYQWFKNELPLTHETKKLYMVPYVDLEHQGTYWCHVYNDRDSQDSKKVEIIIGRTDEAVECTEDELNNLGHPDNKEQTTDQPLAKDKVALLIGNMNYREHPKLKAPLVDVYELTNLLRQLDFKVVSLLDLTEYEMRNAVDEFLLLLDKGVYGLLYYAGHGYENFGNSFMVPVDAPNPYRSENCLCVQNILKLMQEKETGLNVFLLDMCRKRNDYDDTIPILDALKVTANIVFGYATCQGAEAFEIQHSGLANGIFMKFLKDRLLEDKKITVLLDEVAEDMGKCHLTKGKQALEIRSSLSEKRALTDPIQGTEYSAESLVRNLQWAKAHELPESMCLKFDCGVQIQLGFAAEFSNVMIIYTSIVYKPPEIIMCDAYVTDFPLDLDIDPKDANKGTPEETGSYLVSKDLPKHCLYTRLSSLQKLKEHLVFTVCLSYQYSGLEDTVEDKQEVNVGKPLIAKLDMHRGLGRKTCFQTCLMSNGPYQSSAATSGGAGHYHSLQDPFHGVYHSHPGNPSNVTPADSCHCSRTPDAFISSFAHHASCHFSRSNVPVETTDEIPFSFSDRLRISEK

Row | SMILES | IC50 (full length MALT1) [nM] | IC50 [1] [nM] | fraction unbound at 4 h, 2 µM [2] | solubility at 24 h [3] [µg/mL]
1 | CNC(=O)[C@H]1CC[C@H](C(=O)N(C)[C@@H](c2ccc(Nc3cnc4nc(Cl)nn4c3[C@H](C)OC)cc2)C(F)(F)F)CC1 [Compound 8.2, (1r,4S)—N1-((S)-1-(4-((2-chloro-7-((S)-1-methoxyethyl)-[1,2,4]triazolo[1,5-a]pyrimidin-6-yl)amino)phenyl)-2,2,2-trifluoroethyl)-N1,N4-dimethylcyclohexane-1,4-dicarboxamide] | 100 to 1000 | 100 to 1000 | 0.08 to 0.2 | 250 to 1750 (≈ 430 to 3010 µM)
2 | CO[C@@H](C)c1c(Nc2ccc([C@H](N(C)C(=O)C3CCS(=O)(=O)CC3)C(F)(F)F)cc2)cnc2nc(Cl)nn12 [Compound 1.1, N-[(1S)-1-[4-({2-chloro-7-[(1S)-1-methoxyethyl]-[1,2,4]triazolo[1,5-a]pyrimidin-6-yl}amino)phenyl]-2,2,2-trifluoroethyl]-N-methyl-1,1-dioxo-1λ^6-thiane-4-carboxamide] | < 100 | 100 to 1000 | > 0.2 | 250 to 1750 (≈ 435 to 3040 µM)
3 | CO[C@@H](C)c1c(Nc2ccc([C@H](N(C)C(=O)[C@H]3CC[C@H](C(=O)O)CC3)C(F)(F)F)cc2)cnc2nc(Cl)nn12 [Compound 7.1, (1S,4r)-4-(((S)-1-(4-((2-chloro-7-((S)-1-methoxyethyl)-[1,2,4]triazolo[1,5-a]pyrimidin-6-yl)amino)phenyl)-2,2,2-trifluoroethyl)(methyl)carbamoyl)cyclohexane-1-carboxylic acid] | 100 to 1000 | > 1000 | 0.08 to 0.2 | > 1750
4 | CC(=O)N1CCC(C(=O)N(C)[C@@H](c2ccc(Nc3cnc4nc(Cl)nn4c3C(C)C)cc2)C(F)(F)F)CC1 [Compound 1.19, 1-acetyl-N-[(1S)-1-(4-{[2-chloro-7-(propan-2-yl)-[1,2,4]triazolo[1,5-a]pyrimidin-6-yl]amino}phenyl)-2,2,2-trifluoroethyl]-N-methylpiperidine-4-carboxamide] | < 100 | < 100 | < 0.08 | < 250
5 | CO[C@H](C)c1c(Nc2ccc([C@H](N(C)C(=O)C3CCN(C(C)=O)CC3)C(F)(F)F)cc2)cnc2nc(Cl)nn12 [Compound 11.1, 1-acetyl-N—((S)-1-(4-((2-chloro-7-((R)-1-methoxyethyl)-[1,2,4]triazolo[1,5-a]pyrimidin-6-yl)amino)phenyl)-2,2,2-trifluoroethyl)-N-methylpiperidine-4-carboxamide] | < 100 | 100 to 1000 | 0.08 to 0.2 | 250 to 1750 (≈ 440 to 3080 µM)
6 | CC(C)c1c(Nc2ccc([C@H](N(C)C(=O)C3CCS(=O)(=O)CC3)C(F)(F)F)cc2)cnc2nc(Cl)nn12 [Compound 1.18, N-[(1S)-1-(4-{[2-chloro-7-(propan-2-yl)-[1,2,4]triazolo[1,5-a]pyrimidin-6-yl]amino}phenyl)-2,2,2-trifluoroethyl]-N-methyl-1,1-dioxo-1λ^6-thiane-4-carboxamide] | < 100 | < 100 | < 0.08 | < 250
7 | CO[C@@H](C)c1c(Nc2ccc([C@H](N(C)C(=O)[C@H]3C[C@H](c4nnn[nH]4)C3)C(F)(F)F)cc2)cnc2nc(Cl)nn12 [Compound 9.1, (1r,3S)—N—((S)-1-(4-((2-chloro-7-((S)-1-methoxyethyl)-[1,2,4]triazolo[1,5-a]pyrimidin-6-yl)amino)phenyl)-2,2,2-trifluoroethyl)-N-methyl-3-(1H-tetrazol-5-yl)cyclobutane-1-carboxamide] | < 100 | > 1000 | < 0.08 | > 1750
8 | CO[C@@H](C)c1c(Nc2ccc([C@H](N(C)C(=O)[C@H]3CC[C@H](C(=O)N(C)C)CC3)C(F)(F)F)cc2)cnc2nc(Cl)nn12 [Compound 8.3, (1r,4S)—N1-((S)-1-(4-((2-chloro-7-((S)-1-methoxyethyl)-[1,2,4]triazolo[1,5-a]pyrimidin-6-yl)amino)phenyl)-2,2,2-trifluoroethyl)-N1,N4,N4-trimethylcyclohexane-1,4-dicarboxamide] | 100 to 1000 | 100 to 1000 | 0.08 to 0.2 | 250 to 1750 (≈ 419 to 2940 µM)
9 | CO[C@@H](C)c1c(Nc2ccc([C@H](N(C)C(=O)C3CCC(F)(F)CC3)C(F)(F)F)cc2)cnc2nc(Cl)nn12 [Compound 1.8, N-[(1S)-1-[4-({2-chloro-7-[(1S)-1-methoxyethyl]-[1,2,4]triazolo[1,5-a]pyrimidin-6-yl}amino)phenyl]-2,2,2-trifluoroethyl]-4,4-difluoro-N-methylcyclohexane-1-carboxamide] | 100 to 1000 | 100 to 1000 | < 0.08 | < 250
10 | CO[C@@H](C)c1c(Nc2ccc([C@H](N(C)C(=O)C3CCN(S(C)(=O)=O)CC3)C(F)(F)F)cc2)cnc2nc(Cl)nn12 [Compound 3.4, N-[(1S)-1-[4-({2-chloro-7-[(1S)-1-methoxyethyl]-[1,2,4]triazolo[1,5-a]pyrimidin-6-yl}amino)phenyl]-2,2,2-trifluoroethyl]-1-methanesulfonyl-N-methylpiperidine-4-carboxamide] | < 100 | 100 to 1000 | < 0.08 | < 250
11 | CO[C@@H](C)c1c(Nc2ccc([C@H](N(C)C(=O)C3CCN(C(=O)C4CC4)CC3)C(F)(F)F)cc2)cnc2nc(Cl)nn12 [Compound 4.1, N—((S)-1-(4-((2-chloro-7-((S)-1-methoxyethyl)-[1,2,4]triazolo[1,5-a]pyrimidin-6-yl)amino)phenyl)-2,2,2-trifluoroethyl)-1-(cyclopropanecarbonyl)-N-methylpiperidine-4-carboxamide] | < 100 | 100 to 1000 | 0.08 to 0.2 | < 250
